Laboratory results as given in ChEMBL document CHEMBL3045467, “Major alkaloidal constituent from Impatiens niamniamensis seeds as antihyperglycemic agent” (2011).

Experiments:
Format in all cases: functional
Parameters in all cases: scale not given: the % may be the effect or the level left
[1] = system: Rattus norvegicus; experiment: Antihyperglycemic activity in albino Rattus norvegicus Sprague-Dawley (rat) streptozotocin-induced diabetic model assessed as reduction of AUC of blood glucose level at 50 mg/kg, po after 5 hr
[2] = system: Rattus norvegicus; experiment: Antihyperglycemic activity in albino Rattus norvegicus Sprague-Dawley (rat) streptozotocin-induced diabetic model assessed as reduction of AUC of blood glucose level at 50 mg/kg, po after 24 hr
[3] = system: Rattus norvegicus; experiment: Antihyperglycemic activity in albino Rattus norvegicus Sprague-Dawley (rat) streptozotocin-induced diabetic model assessed as reduction of AUC of blood glucose level at 100 mg/kg, po after 24 hr
[4] = system: Rattus norvegicus; experiment: Antihyperglycemic activity in albino Rattus norvegicus Sprague-Dawley (rat) streptozotocin-induced diabetic model assessed as reduction of AUC of blood glucose level at 100 mg/kg, po after 5 hr

Structure (SMILES) | Activity [1] [%] | Activity [2] [%] | Activity [3] [%] | Activity [4] [%]
C[N+](C)(C)[C@@H](Cc1c[nH]c2ccccc12)C(=O)[O-] [Hypaphorine] | 27.8 | 20.4 | – | –
CN(C)C(=N)NC(=N)N [METFORMIN] | – | – | 24.9 | 26
